# Test results as given in publication doi:10.1101/2023.08.31.555663, “Computational exploration of the global microbiome for antibiotic discovery” (bioRxiv, 2023).
# Where a SMILES comes first, the peptide text is derived from it. Bridges are numbered along the chain shown (N, C = ends). [ ]: non-standard residue; d: D form. The star is where a group is joined. X1 = CC[C@H](C)CCCCC(=O)*; Dab = NCC[C@H](N)C(=O)O
# Experiments:
# [1] = test system: A. baumannii ATCC 19606; test: Skin abscess infection mouse model; format: in vivo; conditions: CD-1 mice, n=3
# Procedure: Figure 7. Anti-infective activity of AMPs in pre-clinical animal model. (A) Schematic of the skin abscess mouse model used to assess the anti-infective activity of the peptides against A. baumannii cells. (B) Peptides were tested at their MIC in a single dose one hour after the establishment of the infection. Each group consisted of three mice n=3 and the bacterial loads used to infect each mouse derived from a different inoculum. (C) To rule out toxic effects of the peptides, mouse weight was monitored throughout the experiment. Statistical significance in (B) was determined using one-way ANOVA where all groups were compared to the untreated control group; P-values are shown for each of the groups. Features on the violin plots represent median and upper and lower quartiles. Data in (C) are the mean ± the standard deviation. Figure created in BioRender.com. […]
# To assess the anti-infective efficacy of the peptides against A. baumannii ATCC 19606 in a skin abscess infection mouse model, the bacteria were cultured in tryptic soy broth (TSB) medium until an OD600 of 0.5 was reached. […] The animals were euthanized two- and four-days post-infection, and the infected area was extracted and homogenized for 20 min using a bead beater (25 Hz) and 10-fold serially diluted for CFU quantification on MacConkey agar plates for easy differentiation of A. baumannii colonies. […]
# [2] = test system: Acinetobacter baumannii ATCC 19606; conditions: broth microdilution, LB broth, 24 h at 37 °C, two-fold dilutions 64 to 1 μmol·L^−1, absorbance 600 nm, mode of three independent replicates
# Procedure: Amino acid composition, structure, antimicrobial activity, and mechanism of action of c_AMPs. […] (AC) Activity of c_AMPs assessed against ESKAPEE pathogens and human gut commensal strains. Briefly, 10^6 CFU·mL^−1 was exposed to c_AMPs two-fold serially diluted ranging from 64 to 1 μmol·L^−1 in 96-wells plates and incubated at 37 °C for one day. After the exposure period, the absorbance of each well was measured at 600 nm. Untreated solutions were used as controls and minimal concentration values for complete inhibition were presented as a heat map of antimicrobial activities (μmol·L^−1) against 11 pathogenic and eight human gut commensal bacterial strains.
smiles,measurement,setting,value
CC[C@H](C)CCCCC(=O)N[C@@H](CCN)C(=O)N[C@H](C(=O)N[C@@H](CCN)C(=O)N[C@H]1CCNC(=O)[C@H]([C@@H](C)O)NC(=O)[C@H](CCN)NC(=O)[C@H](CCN)NC(=O)[C@H](CC(C)C)NC(=O)[C@@H](Cc2ccccc2)NC(=O)[C@H](CCN)NC1=O)[C@@H](C)O [polymyxin B] (X1-[Dab]T[Dab][Dab][Dab][dF]L[Dab][Dab]T; lactam 4-C (inferred); N-terminus assumed),Kind of anti-infective activity against A. baumannii in skin abscess,"[1]; single dose at MIC on the infected area, two days post-infection",bactericidal activity
same,Reduction of CFU counts compared to the untreated control,"[1]; skin abscess, A. baumannii, single dose at MIC, four days post-infection",1–2 orders of magnitude
same,"Minimal Inhibitory Concentration, A. baumannii ATCC 19606",[2],0.25 µmol/L
